The values below come from patent US9345694B2, “Compounds for enhancing arginase activity and methods of using same” (Cornell Research Foundation, Inc., priority 2006, dated 2016).

Test [1] concerns myelin-associated glycoprotein (MAG) inhibition in P7 rat cerebellar neurons. Briefly: MAG inhibition analysis, neurite outgrowth of P7 rat cerebellar neurons on MAG-overexpressing CHO cells, post-treatment. The note with it: 10 nM and 40 nM, 24 h in culture, CHO-MAG vs control CHO cells. In kind it is cell-based. As to the method: Compounds were tested for their ability to overcome myelin-associated glycoprotein (MAG) inhibition in P7 rat cerebellar neurons.
In experiments performed in the Roman Giger laboratory at the University of Rochester School of Medicine and Dentistry, twelve compounds were tested, using the materials and methods described by Venkatesh, et al., J Neurosci.
The twelve compounds were tested in two different dilutions (10 nM and 40 nM final concentration).
MAG-overexpressing CHO cells and control CHO feeder layers were used in the assay. All experiments were done with Percoll purified P7 rat cerebellar neurons. The twelve compounds were tested in a “post-treatment” manner. Post-treatment refers to administering the compounds after the neurons were plated.
After 24 h in culture, cells were fixed and stained with TuJ1 (cells with neurites longer than 1 cell body diameter were quantified). Untreated cells (first column of FIGS. 11 and 12) and DMSO only (second column of FIGS. 11 and 12) were used as a negative controls. RHO-kinase inhibitor Y27632 (15 microM) (third column of FIGS. 11 and 12) was used as a positive control. All experiments have been repeated 3-5 times independently.
In FIGS. 11 and 12, there are two bars for each compound tested.

Test [2] concerns myelin-associated glycoprotein (MAG) inhibition in p5 rat cerebellar neurons. Briefly: MAG inhibition analysis, neurite outgrowth of p5 rat cerebellar neurons on MAG-expressing CHO cells, direct addition or priming. In kind it is cell-based. The following applies: priming overnight at 20 μM, then plated on MAG-expressing CHO cells.
Method: Compounds were tested for their ability to overcome myelin-associated glycoprotein (MAG) inhibition in primary rat neurons. […] In a first experiment, the twelve compounds were tested for their ability to overcome inhibition by MAG in culture. The compounds were tested for their ability to inhibit neurite outgrowth of MAG-expressing CHO cells. Cerebellar neurons were cultured on MAG-expressing CHO cells and neurite length is compared to neurons growing on control CHO cells, not expressing MAG. The cells were assessed for their ability to overcome MAG inhibition when added directly to the cultures at a range of concentrations from 2-20 μM. Neurons were plated at a density of about 10,000 neurons per well of an 8-well culture dish containing a monolayer of either MAG-expressing or control CHO cells. The co-cultures were, incubated for 16-18 h and then immunostained for βIII tubulin. Neurite outgrowth was quantified as previously described (Mukhopadhyay et al., 1994). […] At least 400 neurons were measured in each assay and the experiment was carried out at least twice.
The subject of test [3] is Arginase I protein. Briefly: Western blotting and immunostaining for Arginase I protein in treated neurons. The note with it: neurons treated at 20 μM for 18 hours. It is filed as cell-based, rat. As to the method: FIG. 15. Western blot and immunostaining results for arginase I protein. Neurons were treated with, daidzein (20 μM), methoxyvone (5 μM) or lanzoprazole (20 μM) for 18 hours and were then lysed and subjected to gel electrophoresis, followed by western blotting and immunostaining for Arginase I protein. As a positive control, neurons were treated with 1 mM db cAMP.
In a second experiment, the twelve compounds were tested for their ability to upregulate arginase I protein. Neurons were treated with, daidzein (20 μM), methoxyvone (5 μM) or lanzoprazole (20 μM) for 18 hours and were then lysed and subjected to gel electrophoresis, followed by western blotting and immunostaining for Arginase I protein. As a positive control, neurons were treated with 1 mM db cAMP (FIG. 15). Db-cAMP was previously shown to increased Arginase I protein 3-fold as described by Cai, et a., Neuron. 2002 Aug. 15; 35(4):711-9.

Test [4] concerns Arginase I protein. The note with it: Cai et al., cited from earlier work.

For the molecule `CC(=O)Nc1ccc(O)cc1` [Acetaminophen, reference compound], in test [1], the “effect on releasing MAG inhibition” value is “no effect”.

For the molecule `COc1ccc(C[C@H]2NC[C@H](O)[C@H]2OC(C)=O)cc1` [Anisomycin, reference compound], the “effect on releasing MAG inhibition” value in test [1] is given as “most promising”.

Regarding `O=C(/C=C/c1ccc(O)c(O)c1)OCCc1ccccc1` [CAPE, Phenethyl caffeate], the “effect on releasing MAG inhibition” value in test [1] is on record as “no effect”.

Regarding `O=c1c(-c2ccc(O)cc2)coc2cc(O)ccc12` [Daidzein], in test [1], the “effect on releasing MAG inhibition” value is recorded as “no effect”. Also, the “ability to overcome inhibition by MAG (neurite outgrowth)” value in test [2] is listed as “overcome inhibition by MAG completely”. In the test on Arginase I protein [3], the “Arginase I protein level” value is “up-regulated”.

Turning to `CCCC(=O)Nc1ncnc2c1ncn2[C@@H]1O[C@@H]2COP(=O)(O)O[C@H]2[C@H]1OC(=O)CCC` [Db-cAMP], the “increase of Arginase I protein” value in the test on Arginase I protein [4] (previously shown, Neuron 2002) is given as 3 fold. The “Arginase I up-regulation” value with Arginase I protein [4] (shown previously, 2002) is on record as “up-regulated”.

As for `COc1ccc2c(c1)OCc1c-2oc2cc(OC)ccc12` [Dehydrovariabilin], the “effect on releasing MAG inhibition” value in test [1] is “most promising”.

As to `COc1cc(OC)c2c(=O)c(-c3ccc4c(c3)OCO4)coc2c1` [Derrustone], in test [1], the “effect on releasing MAG inhibition” value is “no effect”.

Turning to `COC(=O)Nc1nc2ccc(Sc3ccccc3)cc2[nH]1` [Fenbendazole, reference compound], the “effect on releasing MAG inhibition” value in test [1] is “most promising”.

In the case of `Cc1c(OCC(F)(F)F)ccnc1C[S+]([O-])c1nc2ccccc2[nH]1` (stereo not shown) [Lanzoprazole, Lansoprazole, reference compound], the “ability to overcome inhibition by MAG (neurite outgrowth)” value in test [2] was “overcome inhibition by MAG completely”. The “Arginase I protein level” value in the test with Arginase I protein [3] is reported as “up-regulated”.

With `Oc1cc(O)cc(/C=C/c2ccccc2)c1` [Pinosylvin], the “effect on releasing MAG inhibition” value in test [1] is listed as “most promising”.

`COc1ccc(/C=C/c2cc(O)cc(O)c2)cc1` [Resveratol 4-methyl ether]: in test [1], the “effect on releasing MAG inhibition” value was “no effect”.

Take `CC(=O)Oc1cc(OC(C)=O)c2c(c1)O[C@H](c1ccc(OC(C)=O)c(OC(C)=O)c1)[C@H](OC(C)=O)C2` [epicatechin pentaacetate, Epicatechin pentaacetate]: the “effect on releasing MAG inhibition” value in test [1] is “no effect”.
